US20130005747A1, “METHOD FOR SELECTING A CANCER THERAPY” (Cyclacel Limited, priority 2010, published 2013)
Entries after “also recorded” stand apart in the source; their conditions may differ.

Columns and labels:
[1] = test system: H-23 human lung cancer cell line; experiment: Growth inhibition of lung cancer cells (FIG. 6); format: cell-based; details: for growth inhibition / sensitivity (in words): 72 hours post-treatments
Text: Thus, findings from this large panel of cancer cell lines indicated significant roscovitine sensitivity well beyond those human and murine lung cancer cells already investigated. For lung cancer cells, this response is tightly associated with the presence of ras activation in highly responsive cells.

[2] = test system: C-10 murine immortalized pulmonary epithelial cells; experiment: Growth inhibition of immortalized pulmonary epithelial cells (FIG. 6B); format: cell-based
[3] = test system: 270 human cancer cell lines; experiment: Pharmacogenomic analysis of cancer cell lines, summary; format: cell-based; details: over half of investigated lung, pancreatic, head and neck, esophageal, liver, thyroid, ovarian, uterine, and skin cancer cell lines; 72 hours
Text: A total of 270 human cancer cell lines from diverse cancer histopathologic types were investigated.

[4] = test system: nasopharyngeal cancer (NPC); experiment: Clinical study of seliciclib in previously treated advanced solid tumors enriched for NPC; format: in vivo, human
Description: The incidence of nasopharyngeal cancer (NPC) varies, with higher rates in southern Asia, intermediate rates in Mediterranean basin countries as well as in Greenland and Alaska populations, and low rates in most of the western countries (Chang et al 2006 Cancer Epidemiol. Biomarkers Prev. v15 p 1765). A clinical study of R-roscovitine (seliciclib) in patients with previously treated advanced solid tumors that was heavily enriched for NPC patients was performed. […] Patients were also evaluated for overall survival, response rate, response duration, safety, and tolerability.
A total of 23 patients were enrolled on the study (11 at 400 mg bid and 12 at 800 mg qd.).
This patient was […] and thus not from one of the patient populations where NPC is more prevalent. K-Ras mutations are extremely rare in NPC patients. A biopsy sample from this patient was analysed for K-Ras mutational status. DNA was extracted from a paraffin embedded tumor sample and analysed for a total of 12 different mutations in Gly12 and Gly13 which represent the most common K-Ras activating mutations. Analysis was performed using a standard PCR-RFLP methodology as has been reported previously (Hatzaki et al 2001 Molecular and Cellular Probes; v15, 243) which identified a K-Ras activating mutation at Gly12 in the tumor sample.
This was a longer period of clinical benefit than achieved with four previous therapies.

[5] = test system: nasopharyngeal cancer (NPC); details: Phase I, patients with nasopharyngeal cancer; cited from earlier work

## CC[C@H](CO)Nc1nc(NCc2ccccc2)c2ncn(C(C)C)c2n1 [seliciclib, roscovitine]
[1]; listed as Seliciclib
  growth inhibition / sensitivity (in words): dose-dependent growth inhibition
[1]; listed as roscovitine
  growth inhibition / sensitivity (in words): more sensitive to roscovitine that H-522 lung cancer cells
[1]; seliciclib combined with docetaxel
  proliferation, combined treatment (in words): cooperatively inhibited proliferation
[1]; seliciclib combined with paclitaxel
  proliferation, combined treatment (in words): cooperatively inhibited proliferation
[2]
  growth inhibition (in words): Dose-dependent growth inhibition
[3]
  growth inhibition compared with vehicle treated cells: at least 50%
[4]; a number of individuals, 400 mg bid or 800 mg qd
  disease response among the NPC patients: prolonged stable disease
[4]; one NPC patient with K-Ras activating mutation at Gly12, schedule B, 800 mg once per day, four days every week
  duration of stable disease: stable disease for over two years; also recorded: stable disease for greater than two years
[4]; patients, 400 mg bid and 800 mg qd, four consecutive days every week
  tolerability: well tolerated
[5]
  copy counts of the EBV virus: concomitant reduction in copy counts of the EBV virus
  tumor response: evidence of tumor shrinkage
